From patent publication US20220056018A1, “SREBP INHIBITORS COMPRISING A THIOPHENE CENTRAL RING” (Capulus Therapeutics, LLC, priority 2019, published 2022)

What was measured:
Assay in all cases: Cancer cell growth inhibition
Type in all cases: cell-based
[1] = system: A673; conditions: Homo sapiens; A673 (muscle), 72 hr treatment
Experimental: (§1) The ability of select compounds to inhibit cell growth in various cancer cell lines are evaluated. […] The cell lines shown in Table 2 have reduced growth by at least 50% at 10 uM or lower over 72 hr treatment in growth media. The cell lines shown in Table 3 have reduced growth by at least 50% with an IC50 greater than 10 uM.
(§2) Six 10-fold compound dilutions are prepared in DMSO (e.g. 10 mM, 1 mM, 100 uM, 10 uM, 1 uM, and 0.1 uM). Single data points are acquired for each concentration. The final concentration of DMSO is 0.1%. The duration of the treatment is 72 hr. Growth inhibition is measured using Sulforhodamine B in a protein staining assay. Activity of the agents is determined by evaluation the following parameters: IC50, GI50, IC10, TGI, LC50, IC90, and GI90 (where these values can be calculated).

[2] = system: ASPC1; conditions: Homo sapiens; ASPC1 (pancreas), 72 hr treatment
Experimental: as §1, §2

[3] = system: HCT15; conditions: Homo sapiens, HCT-15; HCT15 (colon), 72 hr treatment
Experimental: as §1, §2

[4] = system: SKHEP1; conditions: Homo sapiens, SK-HEP1; SKHEP1 (liver), 72 hr treatment
Experimental: as §1, §2

[5] = system: SKLMS1; conditions: Homo sapiens, SK-LMS-1; SKLMS1 (uterus), 72 hr treatment
Experimental: as §1, §2

[6] = system: CLS439; conditions: CLS439 (bladder), 72 hr treatment
Experimental: as §1, §2

[7] = system: J82; conditions: Homo sapiens; J82 (bladder), 72 hr treatment
Experimental: as §1, §2

[8] = system: SKOV3; conditions: Homo sapiens, SK-OV-3; SKOV3 (ovary), 72 hr treatment
Experimental: as §1, §2

[9] = system: EJ28; conditions: Homo sapiens, EJ-28; EJ28 (bladder), 72 hr treatment
Experimental: as §1, §2

[10] = system: HEPG2; conditions: Homo sapiens; HEPG2 (liver), 72 hr treatment
Experimental: as §1, §2

[11] = system: SF295; conditions: Homo sapiens, SF-295; SF295 (brain), 72 hr treatment
Experimental: as §1, §2

[12] = system: PC3; conditions: Homo sapiens, PC-3; PC3 (prostate), 72 hr treatment
Experimental: as §1, §2

[13] = system: K-562; conditions: Homo sapiens, K562; K-562 (hematological), 72 hr treatment
Experimental: as §1, §2

[14] = system: SU-DHL-6; conditions: Homo sapiens; SU-DHL-6 (hematological), 72 hr treatment
Experimental: as §1, §2

[15] = system: CAKI1; conditions: Homo sapiens, CAKI-1; CAKI1 (kidney), 72 hr treatment
Experimental: as §1, §2

[16] = system: SKMEL28; conditions: Homo sapiens, SK-MEL-28; SKMEL28 (skin), 72 hr treatment
Experimental: as §1, §2

[17] = system: 22RV1; conditions: Homo sapiens; 22RV1 (prostate), 72 hr treatment
Experimental: as §1, §2

[18] = system: IMR90; conditions: Homo sapiens, IMR-90; IMR90 (lung), 72 hr treatment
Experimental: as §1, §2

[19] = system: MIAPACA2; conditions: Homo sapiens, MIA PaCa-2; MIAPACA2 (pancreas), 72 hr treatment
Experimental: as §1, §2

[20] = system: PLCPRF5; conditions: Homo sapiens, PLC-PRF-5; PLCPRF5 (liver), 72 hr treatment
Experimental: as §1, §2

[21] = system: COLO678; conditions: Homo sapiens, COLO-678; COLO678 (colon), 72 hr treatment
Experimental: as §1, §2

[22] = system: SKBR3; conditions: Homo sapiens, SK-BR-3; SKBR3 (breast), 72 hr treatment
Experimental: as §1, §2

[23] = system: SAOS2; conditions: Homo sapiens, SAOS-2; SAOS2 (bone), 72 hr treatment
Experimental: as §1, §2

[24] = system: SKNAS; conditions: Homo sapiens, SK-N-AS; SKNAS (brain), 72 hr treatment
Experimental: as §1, §2

[25] = system: NCIH292; conditions: Homo sapiens, NCI-H292; NCIH292 (lung), 72 hr treatment
Experimental: as §1, §2

[26] = system: SF268; conditions: Homo sapiens, SF-268; SF268 (brain), 72 hr treatment
Experimental: as §1, §2

[27] = system: NCIH460; conditions: Homo sapiens, NCI-H460; NCIH460 (lung), 72 hr treatment
Experimental: as §1, §2

[28] = system: RAMOS; conditions: Homo sapiens; RAMOS (hematological), 72 hr treatment
Experimental: as §1, §2

[29] = system: 5637; conditions: 5637 (bladder), 72 hr treatment
Experimental: as §1, §2

[30] = system: IGROV1; conditions: Homo sapiens, IGROV-1; IGROV1 (ovary), 72 hr treatment
Experimental: as §1, §2

[31] = system: LOVO; conditions: Homo sapiens; LOVO (colon), 72 hr treatment
Experimental: as §1, §2

[32] = system: A204; conditions: Homo sapiens; A204 (muscle), 72 hr treatment
Experimental: as §1, §2

| Structure (SMILES) | IC50 [1] [µM] | IC50 [2] [µM] | IC50 [3] [µM] | IC50 [4] [µM] | IC50 [5] [µM] | IC50 [6] [µM] | IC50 [7] [µM] | IC50 [8] [µM] | IC50 [9] [µM] | IC50 [10] [µM] | IC50 [11] [µM] | IC50 [12] [µM] | IC50 [13] [µM] | IC50 [14] [µM] | IC50 [15] [µM] | IC50 [16] [µM] | IC50 [17] [µM] | IC50 [18] [µM] | IC50 [19] [µM] | IC50 [20] [µM] | other results |
| --- | --- | --- | --- | --- | --- | --- | --- | --- | --- | --- | --- | --- | --- | --- | --- | --- | --- | --- | --- | --- | --- |
| CC(C)(CO)c1cc(-c2csc(-c3ccc(NS(C)(=O)=O)cc3Cl)c2)ccn1 [Compound I-8909, N-(3-chloro-4-(4-(2-(1-hydroxy-2-methylpropan-2-yl)pyridin-4-yl)thiophen-2-yl)phenyl)methanesulfonamide] | > 10 | < 10 | > 10 | < 10 | > 10 | > 10 | < 10 | > 10 | > 10 | < 10 | < 10 | > 10 | < 10 | < 10 | < 10 | < 10 | < 10 | > 10 | > 10 | < 10 | IC50 [21]: < 10 µM; IC50 [22]: < 10 µM; IC50 [23]: > 10 µM; IC50 [24]: > 10 µM; IC50 [25]: < 10 µM; IC50 [26]: < 10 µM; IC50 [27]: < 10 µM; IC50 [28]: < 10 µM; IC50 [29]: < 10 µM; IC50 [30]: > 10 µM; IC50 [31]: < 10 µM; IC50 [32]: < 10 µM |
| CC(C)(O)Cc1cc(-c2csc(-c3ccc(NS(C)(=O)=O)cc3Cl)c2)ccn1 [Compound I-9004, N-(3-chloro-4-(4-(2-(2-hydroxy-2-methylpropyl)pyridin-4-yl)thiophen-2-yl)phenyl)methanesulfonamide] | > 10 | < 10 | < 10 | < 10 | > 10 | > 10 | > 10 | > 10 | > 10 | < 10 | < 10 | > 10 | < 10 | < 10 | < 10 | < 10 | < 10 | > 10 | > 10 | < 10 | IC50 [21]: < 10 µM; IC50 [22]: < 10 µM; IC50 [23]: > 10 µM; IC50 [24]: > 10 µM; IC50 [25]: < 10 µM; IC50 [26]: < 10 µM; IC50 [27]: < 10 µM; IC50 [28]: < 10 µM; IC50 [29]: > 10 µM; IC50 [30]: > 10 µM; IC50 [31]: < 10 µM; IC50 [32]: > 10 µM |
| CS(=O)(=O)Nc1ccc(-c2cc(-c3ccnc4c3OCCO4)cs2)c(Cl)c1 [Compound I-9017, N-(3-chloro-4-(4-(2,3-dihydro-[1,4]dioxino[2,3-b]pyridin-8-yl)thiophen-2-yl)phenyl)methanesulfonamide] | < 10 | < 10 | > 10 | < 10 | > 10 | < 10 | > 10 | < 10 | > 10 | < 10 | < 10 | > 10 | < 10 | < 10 | < 10 | < 10 | < 10 | > 10 | < 10 | < 10 | IC50 [21]: < 10 µM; IC50 [22]: < 10 µM; IC50 [23]: < 10 µM; IC50 [24]: > 10 µM; IC50 [25]: < 10 µM; IC50 [26]: < 10 µM; IC50 [27]: < 10 µM; IC50 [28]: < 10 µM; IC50 [29]: < 10 µM; IC50 [30]: < 10 µM; IC50 [31]: < 10 µM; IC50 [32]: < 10 µM |
